We go through three compounds from US6545048B1, “Compositions and methods of treating cancer using compositions comprising an inhibitor or endothelin receptor activity” (California Institute of Technology, priority 1999, dated 2003).

Entries after “also recorded” stand apart in the source; their conditions may differ. Where a SMILES comes first, the peptide text is derived from it. [ ]: non-standard residue; d: D form.

In series [1] the test system is human melanoma cell lines. Put plainly: MTS cell viability/cell number assay, melanoma lines. In kind it is cell-based. The settings on record: for number of viable cells: 4 days. As for the experimental part: Cells were cultured in the presence of BQ788 or vehicle or with no treatment for 4 days. Three wells of each condition were subjected to the MTS assay. The means were calculated and plotted as percent of the vehicle-treated value, +S.E.M. P values were calculated using […] for absolute values. The experiment was repeated 3 times, each yielding similar results.
(§1) Cell culture. Human melanoma cell lines were obtained from the American Tissue Culture Collection (ATCC) and were cultured with Dulbecco's Eagle medium (ATCC), containing 10% fetal calf serum, glutamine (Gibco) and antibiotics (concentration; Pen-Strep mix, Gibco) in a humidified incubator with 5% CO2 at 37° C. BQ788 and BQ123 (Calbiochem) were dissolved in 2% polyoxythylene (60) hydrogenated castor oil (HCO60; Nikko Chemicals). Cells were cultured in 96 well ELISA plates. For the cell viability/cell number assay, the day after plating, inhibitor or vehicle was added ard the cultures incubated for 4 days. The MTS assay was used to quantify cells by measuring OD at […] (Promega).

The conditions of series [2]: literature reports; cited from earlier work.
Series [3] deals with kidney 293 cells. Put plainly: MTS cell viability/cell number assay, kidney cells. Format: cell-based, human. The settings on record: high concentrations, 4 days.
Series [4] concerns A375 melanoma tumor. The series is described as follows: Intra-tumor injection, A375 melanoma grafts in nude mice. Format: in vivo, nude mice (nu/nu, BALB/c background). As for the experimental part:
Nude mice (nu/nu, BALB/c background) were implanted with grafts of A375 cells subcutaneously on the flank. After the tumors had reached approximately 4 mm in diameter they were injected daily with BQ788 for 9 days. Perpendicular tumor diameters were measured daily to estimate tumor volume. Controls were injected on the same schedule with vehicle. Data from 3 experiments utilizing 10 BQ788-treated mice and 8-vehicle treated mice were pooled. P values were calculated using t test. Similar conclusions come from measuring tumor weights.
For the in vivo experiments we chose the A375 melanoma cell line. Although this line is not the most sensitive to BQ788 treatment in culture, it is known to grow readily in nude mice. First, dissociated cells were injected as a suspension into the flank of nude mice. When tumors developed, one mouse was sacrificed, the tumor removed and cut into pieces of approximately 3 mm in diameter and implanted under the skin of a new series of nude mice. When the tumor reaches 4 mm in diameter (which takes approximately 12 days, but can vary), 25 μl of a solution containing 20, μg/μl of BQ788 dissolved in 2% polyoxythylene (60) hydrogenated castor oil (HCO60) (Ishikawa, et al., Proc. Natl. Acad. Sci. USA, 91:4892-6 (1994)) was injected into the center of the tumor daily for 9 days. Tumors in control mice were injected in the same way with 25 μl of 2% HCO60. Before each injection the tumor dimensions were measured. At the outset, the mean tumor volume was 26 mm^3 in both control and BQ788-treated mice. […] Similar conclusions come from comparison of tumor weights (means of 446 mg versus 93 mg; p<0.005).

Series [5] concerns human melanoma cell lines. Put plainly: Morphology of cultured melanoma cells treated with antagonist (bright field). In kind it is cell-based. As to the method:
(§2) Cells were cultured for 4 days with 100 μM BQ788 (FIGS. A, C, and E) or with vehicle (FIGS. B, D, and F). The cell lines were melanoma line SK-MEL 28 (FIGS. A and B), melanoma line SK-MEL 5 (FIGS. C and D), and kidney 293 (FIGS. E and F). […] Pictures were taken with bright field optics at 40×magnification.
as §1
(§3) To test the hypothesis that ETRB function plays a role in melanoma cell growth and differentiation, we cultured 7 human melanoma cell lines and one human kidney cell line with the selective ETRB antagonist, BQ788.

Series [6] relates to A375 melanoma tumor. The series is described as follows: Systemic (i.p.) administration, A375 melanoma grafts in nude mice. In kind it is in vivo. As for the experimental part:
The experiment was similar to that described in FIG. 6, except that the drug and vehicle were injected daily i.p. In FIG. 7A, the data for the 6 BQ788-treated mice were pooled.
We next asked if systemic administration of BQ788 inhibits tumor growth. In these experiments, tumor induction and the starting point of the treatments were as for the intra-tumor approach. At that point, mice were injected i.p. with 100 μl of BQ788 solution (0.6 mg BQ788 in 30% water and 70% saline, at a final HCO60 concentration of 0.6%) once or twice a day for a period of 9 days. Control mice received the same injections but without BQ788. In the first experiment, mice were injected once a day, and in the second experiment the mice were injected in the morning and then again in the early evening. […] However, there was some heterogeneity in the response of the mice to BQ788.

Series [7] concerns A375 melanoma tumor. The series is described as follows: Histology of tumors from the i.p. experiment (TUNEL, anti-CD31). Format: in vivo, nude mice. As to the method: FIGS. 8A-8D show representative sections from 4 tumors from BQ788 injected mice and FIGS. 8E-8G show tumors from vehicle-injected mice. […] The magnification is 20×.
Immunohistochemistry. Tumors were frozen on dry ice, cut on a cryostat into 20 μm sections, and stored at −80° C. Sections were rinsed in calcium and magnesium-free phosphate buffered saline (PBS), fixed in 4% paraformaldehyde for 1 hour at room temperature, blocked with 2% rabbit serum and incubated with primary antibody overnight at 4° C. After washing in PBS sections were incubated with a biotinylated secondary antibody, and staining developed using the Elite ABC kit (Vector Laboratories, CA). The primary antibodies used in this study were monoclonal rat anti-mouse CD31 (platelet endothelial cell adhesion molecule) and rat anti-mouse CD45 (leukocyte common antigen found on all cells of hematopoietic origin, except erythrocytes) (Pharmagen, San Diego, Calif.). A cell death kit was used for TUNEL staining (Boehringer Mannheim).
Several of the tumors from the i.p. injection experiment were taken for histological examination on day 10. Sections were stained with anti-CD31 antibody for angiogenesis, and with the TUNEL method for apoptosis. […] These effects in culture appear mediated by the action of the drug on ETRB itself, as BQ788 is ineffective on A375 cells in the presence of the ETRB agonist S6c. A further indication of the specificity of the action of BQ788 is its very different effect on kidney 293 cells.

For series [8], the system named is kidney 293 cells. The series is described as follows: Morphology of cultured kidney 293 cells treated with antagonist (bright field). The settings on record: 100 μM, 4 days. Format: cell-based, human. As for the experimental part: as §2, §1, §3
The test system of another series is A375 cells. Put plainly: MTS assay, S6c alone or in combination with BQ788. Format: cell-based, human. As for the experimental part: In experiments similar to those illustrated in FIG. 2, S6c was tested for its effects on cultured A375 cells, alone or in combination with BQ788, at various concentrations.
as §1
Thus, the ability of BQ788 to lower melanoma cell number is likely to be through its action on ETRB and not as a side effect on another aspect of melanoma cell physiology.

[9] abbreviates: A375, SK-MEL 28 and RPMI 7951 cells.

In the case of `CC(C)C[C@@H]1NC(=O)[C@@H](C(C)C)NC(=O)[C@@H]2CCCN2C(=O)[C@@H](CC(=O)O)NC(=O)[C@@H](Cc2c[nH]c3ccccc23)NC1=O` [BQ123] (cyclo(L[dW][dD]P[dV])), in series [1] (A375 and SK-MEL 28 melanoma lines), the cell number entry was “slightly increases cell number”. Further, in series [1] (any of the cell lines, even at high concentrations), the “number of viable cells” value is recorded as “does not reduce the number of viable cells; also recorded: did not inhibit melanoma cell growth in culture”.
Take `CCCC[C@@H](NC(=O)[C@@H](Cc1cn(C(=O)OC)c2ccccc12)NC(=O)[C@H](CC(C)(C)C)NC(=O)N1[C@H](C)CCC[C@@H]1C)C(=O)O` [BQ788, N-cis-2,6-dimethylpiperidinocarbonyl-L-γ-methylleucyl-D-1-methoxycarbonyltrptophanyl-D-norleucine]: the tolerability result in [2] is on record as “can be well tolerated”. Besides, the “number of viable cells” value is recorded as “not kidney cells; also recorded: is not reduced” with kidney 293 cells [3] and “reduces the number of viable cells; also recorded: very significant loss in the number of viable cells” in [1] (all 7 melanoma lines, 100 μM). Besides, in the series on A375 melanoma tumor [4] (9 days, intra-tumor injection), the “growth rate (final size minus initial size) compared to controls” value is recorded as 6 times slower. Further, in the series on A375 melanoma tumor [4] (after 9 days of daily intra-tumor injection, control 376 mm^3, 26 mm^3 at the outset), the mean tumor volume is on record as 84 mm^3. In addition, the tumor growth entry is recorded as “inhibits melanoma tumor growth” in the series on A375 melanoma tumor [4] (intra-tumor injection daily for 9 days) and “inhibits melanoma tumor growth; also recorded: effective inhibition of tumor growth” with A375 melanoma tumor [6] (i.p. once or twice a day for 9 days, pooled mice). In addition, the “tumor weight (mean)” value with A375 melanoma tumor [4] (intra-tumor injection, control 446 mg, p<0.005) was determined as 93 mg. Further, the viability entry in [1] (setting [9]) is listed as “almost complete loss of viability”; in series [1] (SK-MEL 3 cells) it was “less affected than the other lines”; in series [1] (SK-MEL 24 and SK-MEL 31 cells) it was “more affected”. The “sensitivity among the cell lines” value in series [1] (RPMI 7951 cells) is given as “highest degree of sensitivity”. Besides, the morphology result in series [5] (setting [9]) was “vacuoles in their cytoplasm”; in series [5] (SK-MEL 3 cells) it was “increased surface area (dendritic morphology)”; in [5] (SK-MEL 24 and SK-MEL 31 cells) it was “increased pigmentation”; in series [5] (SK-MEL 28 and SK-MEL 5, 100 μM, 4 days (FIG. 1 legend)) it was “different shape and accumulation of black pigment”. The phenotype / dendricity entry in series [5] (SK-MEL 5 cells, 100 μM, 4 days) is given as “dendritic phenotype; also recorded: increased dendricity”. Moreover, the morphological changes result was “develop large cytoplasmic vacuoles and enhanced pigmentation” in [5] (SK-MEL 28 cells, 100 μM, 4 days); “does not result in any of these morphological changes” with kidney 293 cells [8]. For the same compound, the surface area entry in series [5] (all the melanoma lines) is recorded as “increased surface area”. Besides, in series [5] (most melanoma lines (except for SK-MEL 3)), the pigmentation result is listed as “major increases in pigmentation”. For the same compound, the “tumor growth, first subgroup of mice” value in the series with A375 melanoma tumor [6] (i.p., after 6 days, one set of mice) was “slowed tumor growth”. Moreover, the “tumor growth, second subgroup of mice” value in the series on A375 melanoma tumor [6] (i.p., after 6 days, other set of mice) is “caused the tumors to regress; also recorded: the tumors shrank and displayed complete growth arrest”. Besides, the “tumor size versus day 1” value in the series with A375 melanoma tumor [6] (i.p., first 6 days) is reported as “did not differ significantly from their size at day 1”. Also, the “TUNEL labeling (apoptosis)” value is on record as “TUNEL-positive cells are comparatively greater” in the series on A375 melanoma tumor [7] (day 10) and “enhanced TUNEL labeling” with A375 melanoma tumor [7] (day 10, listed as BQ-788). In addition, in the series on A375 melanoma tumor [7] (day 10 (data not shown)), the “angiogenesis (anti-CD31 staining)” value was “no evidence that BQ788 blocks angiogenesis”. Also, the “effect of BQ788 on cells in the presence of S6c” value in the series with A375 cells (A375 cells, ETRB agonist S6c present) is listed as “ineffective”.
For sarafotoxin 6c [S6c], in the series with A375 cells (S6c alone, 0.1 to 1 μM), the A375 cell number entry is given as “stimulates cell growth; also recorded: increases A375 cell number”. Also, the “block of the effects of BQ788 on cell number” value in the series on A375 cells (S6c in combination with BQ788, A375 cells) is reported as “can block the inhibitory effects of the ETRB antagonist; also recorded: can completely block the effects of BQ788”.
